From ChEMBL document CHEMBL2010712, “Design and synthesis of orally available MEK inhibitors with potent in vivo antitumor efficacy” (Bioorg Med Chem Lett, 2012)

test system: not listed separately; test: Half life in rat liver microsomes; assay type: ADME, Microsome; conditions: not given

SMILES	half-life
Cn1c(Nc2ccc(Br)cc2F)c(C(=O)NOC[C@@H](O)CO)c2c1C(=O)CCC2	70 min
Cn1c(Nc2ccc(I)cc2F)c(C(=O)NOC[C@H](O)CO)c2c1C(=O)CC2	54 min
O=C(NOCCO)c1c(Nc2ccc(I)cc2F)c(Cl)c(=O)n2c1CCC2	54 min
Cn1c(Nc2ccc(I)cc2F)c(C(=O)NOCCO)c2c1C(=O)CCC2	5.5 min
O=C(NOCCO)c1c(Nc2ccc(I)cc2F)cc(=O)n2c1CCC2	62 min
Cn1c(Nc2ccc(I)cc2F)c(C(=O)NOCCO)c2c1C(=O)CC2	14 min

Other lines, results leading:

half-life	SMILES
41 min	O=C(NOCCO)c1c(Nc2ccc(I)cc2F)c(F)c(=O)n2c1CCCC2
> 200 min	C#Cc1ccc(Nc2c(C(=O)NOC[C@H](O)CO)c3c(n2C)C(=O)CCC3)c(F)c1
> 200 min	O=C(NOC[C@H](O)CO)c1c(Nc2ccc(I)cc2F)c(F)c(=O)n2c1CCC2

test system: COLO 205; test: Cytotoxicity against human COLO205 cells after 72 hrs by MTS assay; conditions: COLO 205, 72 h

SMILES	EC50
Cn1c(Nc2ccc(Br)cc2F)c(C(=O)NOC[C@@H](O)CO)c2c1C(=O)CCC2	53 nM
C#Cc1ccc(Nc2c(C(=O)NOC[C@H](O)CO)c3c(n2C)C(=O)CCC3)c(F)c1	62 nM
Cn1c(Nc2ccc(I)cc2F)c(C(=O)NOC[C@H](O)CO)c2c1C(=O)CC2	9 nM
O=C(NOCCO)c1c(Nc2ccc(I)cc2F)c(Cl)c(=O)n2c1CCC2	3 nM
O=C(NOC[C@H](O)CO)c1c(Nc2ccc(I)cc2F)c(F)c(=O)n2c1CCC2	27 nM
Cn1c(Nc2ccc(I)cc2F)c(C(=O)NOCCO)c2c1C(=O)CCC2	1 nM
O=C(NOCCO)c1c(Nc2ccc(I)cc2F)cc(=O)n2c1CCC2	5 nM
Cn1c(Nc2ccc(I)cc2F)c(C(=O)NOCCO)c2c1C(=O)CC2	2 nM
O=C(NOCCO)c1c(Nc2ccc(I)cc2F)c(F)c(=O)n2c1CCCC2	12 nM

test system: A-375; test: Cytotoxicity against human A375 cells after 72 hrs by MTS assay; conditions: A-375, 72 h

SMILES	EC50
Cn1c(Nc2ccc(Br)cc2F)c(C(=O)NOC[C@@H](O)CO)c2c1C(=O)CCC2	76 nM
C#Cc1ccc(Nc2c(C(=O)NOC[C@H](O)CO)c3c(n2C)C(=O)CCC3)c(F)c1	72 nM
Cn1c(Nc2ccc(I)cc2F)c(C(=O)NOC[C@H](O)CO)c2c1C(=O)CC2	13 nM
O=C(NOCCO)c1c(Nc2ccc(I)cc2F)c(Cl)c(=O)n2c1CCC2	5 nM
O=C(NOC[C@H](O)CO)c1c(Nc2ccc(I)cc2F)c(F)c(=O)n2c1CCC2	69 nM
Cn1c(Nc2ccc(I)cc2F)c(C(=O)NOCCO)c2c1C(=O)CCC2	1 nM
O=C(NOCCO)c1c(Nc2ccc(I)cc2F)cc(=O)n2c1CCC2	13 nM
Cn1c(Nc2ccc(I)cc2F)c(C(=O)NOCCO)c2c1C(=O)CC2	4 nM
O=C(NOCCO)c1c(Nc2ccc(I)cc2F)c(F)c(=O)n2c1CCCC2	30 nM

biological target: Dual specificity mitogen-activated protein kinase kinase 1 (Homo sapiens, UniProt Q02750); test: Inhibition of MEK1-mediated ERK1 phosphorylation using IPTTPITTYFFFK-5FAM-COOH as substrate by fluorescent polarization assay; conditions: not given
Sequence (Q02750 whole entry): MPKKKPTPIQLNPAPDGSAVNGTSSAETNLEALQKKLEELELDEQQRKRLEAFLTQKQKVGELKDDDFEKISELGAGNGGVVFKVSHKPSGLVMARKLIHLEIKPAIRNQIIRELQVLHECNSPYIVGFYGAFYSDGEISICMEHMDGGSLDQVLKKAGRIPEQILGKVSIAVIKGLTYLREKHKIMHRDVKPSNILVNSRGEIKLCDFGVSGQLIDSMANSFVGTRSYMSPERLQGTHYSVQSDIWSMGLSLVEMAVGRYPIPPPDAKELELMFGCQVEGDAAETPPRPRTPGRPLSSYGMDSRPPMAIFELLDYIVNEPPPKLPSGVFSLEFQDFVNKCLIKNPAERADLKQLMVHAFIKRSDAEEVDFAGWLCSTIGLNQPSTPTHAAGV

SMILES	IC50
Cn1c(Nc2ccc(Br)cc2F)c(C(=O)NOC[C@@H](O)CO)c2c1C(=O)CCC2	76 nM
Cn1c(Nc2ccc(I)cc2F)c(C(=O)NOC[C@H](O)CO)c2c1C(=O)CC2	54 nM
O=C(NOCCO)c1c(Nc2ccc(I)cc2F)c(Cl)c(=O)n2c1CCC2	109 nM
Cn1c(Nc2ccc(I)cc2F)c(C(=O)NOCCO)c2c1C(=O)CCC2	14 nM

Now from value to molecule:

IC50	SMILES
57 nM	O=C(NOCCO)c1c(Nc2ccc(I)cc2F)c(F)c(=O)n2c1CCCC2
41 nM	C#Cc1ccc(Nc2c(C(=O)NOC[C@H](O)CO)c3c(n2C)C(=O)CCC3)c(F)c1
39 nM	O=C(NOC[C@H](O)CO)c1c(Nc2ccc(I)cc2F)c(F)c(=O)n2c1CCC2

test system: not listed separately; test: Half life in human liver microsomes; assay type: ADME, Microsome; conditions: not given

SMILES	half-life
Cn1c(Nc2ccc(Br)cc2F)c(C(=O)NOC[C@@H](O)CO)c2c1C(=O)CCC2	76 min
Cn1c(Nc2ccc(I)cc2F)c(C(=O)NOC[C@H](O)CO)c2c1C(=O)CC2	86 min
O=C(NOCCO)c1c(Nc2ccc(I)cc2F)c(Cl)c(=O)n2c1CCC2	47 min
Cn1c(Nc2ccc(I)cc2F)c(C(=O)NOCCO)c2c1C(=O)CCC2	3.7 min
O=C(NOCCO)c1c(Nc2ccc(I)cc2F)cc(=O)n2c1CCC2	134 min
Cn1c(Nc2ccc(I)cc2F)c(C(=O)NOCCO)c2c1C(=O)CC2	10 min

The next lines start with the values.

half-life	SMILES
111 min	O=C(NOCCO)c1c(Nc2ccc(I)cc2F)c(F)c(=O)n2c1CCCC2
> 200 min	C#Cc1ccc(Nc2c(C(=O)NOC[C@H](O)CO)c3c(n2C)C(=O)CCC3)c(F)c1
> 200 min	O=C(NOC[C@H](O)CO)c1c(Nc2ccc(I)cc2F)c(F)c(=O)n2c1CCC2
